Broadly, the IC50 is the midpoint of a concentration-inhibition curve.

This experiment concerns the target T1, recombinant HsEg5 motor domain (amino acids 1-369-8His) (Homo sapiens, UniProt P52732).
T1 construct: recombinant HsEg5 motor domain (amino acids 1-369-8His); 8His (C)
T1 sequence (P52732 1-369): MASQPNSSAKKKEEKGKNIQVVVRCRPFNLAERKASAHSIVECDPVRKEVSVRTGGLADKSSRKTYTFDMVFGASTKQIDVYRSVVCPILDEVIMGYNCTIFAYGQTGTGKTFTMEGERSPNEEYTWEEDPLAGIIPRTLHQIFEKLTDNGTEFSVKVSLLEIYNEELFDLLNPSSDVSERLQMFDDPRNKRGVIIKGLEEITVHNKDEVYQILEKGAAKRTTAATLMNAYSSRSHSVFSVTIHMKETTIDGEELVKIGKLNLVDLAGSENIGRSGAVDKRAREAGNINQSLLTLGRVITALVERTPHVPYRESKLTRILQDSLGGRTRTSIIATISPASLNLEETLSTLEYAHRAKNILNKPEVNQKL
The experiment in a line: Malachite Green Assay of Eg5 motor ATPase activity. Type of experiment: biochemical. The settings on record: 6 nM enzyme, 300 μM ATP, 908 nM polymerized tubulin, 20 min pre-incubation, 20 min reaction at room temperature. As to the method:
Enzymatic activity of the Eg5 motor and effects of inhibitors was measured using a malachite green assay, which measures phosphate liberated from ATP, and has been used previously to measure the activity of kinesin motors (Hackney D D, and Jiang W, Assays for kinesin microtubule-stimulated ATPase activity; Methods in Molecular Biology vol 164:65-71 (2001)). Enzyme was recombinant HsEg5 motor domain (amino acids 1-369-8His) and was added at a final concentration of 6 nM to 100 μl reactions. […]
5 μl of compound diluted in 12% DMSO was added to the wells of 96 well plates. […] The reactions were then quenched by the addition of 150 μl malachite green/ammonium molybdate reagent, and absorbance read at 650 nanometers exactly 5 min after quench using a Spectramax Plus plate reader (Molecular Devices). Data was graphed and IC50s calculated using ExCel Fit (Microsoft).

As for `CCC(c1nc2n(c(=O)c1Cc1ccccc1)CCCS2)N(CCCN)C(=O)c1ccc(OC)cc1` (stereo not shown) [Example 4, 3,4-Dihydro-6-oxo-7-benzyl-8-{1-[N-(4-methoxybenzoyl)-N-(3-aminopropyl)amino]propyl}-2H,6H-pyrimido[2,1-b][1,3]thiazine], the IC50 is 331 nM.

(Values after US20070287703A1, “Fused Pyrimidones Useful in the Treatment and the Prevention of Cancer” (AstraZeneca AB, priority 2004, published 2007).)
